Source: patent US20230028441A1, “NOVEL HETEROARYL-TRIAZOLE COMPOUNDS AS PESTICIDES” (Bayer Aktiengesellschaft, priority 2019, published 2023)

Key:
Type in all cases: in vivo
[1] = tested on: cattle tick larvae (Rhipicephalus microplus), strain Parkhurst, resistant against synthetic pyrethroids; experiment: Rhipicephalus (Boophilus) microplus in-vitro contact test, larval cattle tick; conditions: 5 μg/cm^2 (=500 g/ha), after 48 hours, read-out: efficacy (larvae dead or moribund)
Method in brief: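 Acetone solutions of compound were coated on glass tube walls (900 ppm giving 5 μg/cm^2) and dried. 20–50 pyrethroid-resistant Parkhurst larvae were held per tube at 27° C and 85% relative humidity; after 48 h negative geotaxis scored efficacy as percent larvae dead or moribund.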

[2] = tested on: adult cat fleas (Ctenocephalides felis); experiment: Ctenocephalides felis in-vitro contact test, adult cat flea; conditions: 5 μg/cm^2 (=500 g/ha), after 48 hours, read-out: efficacy (fleas dead or moribund)
Procedure: (§1) 9 mg compound is solved in 1 mL acetone and diluted with acetone to the desired concentration. 250 μL of the test solution is filled in 25 mL glass test tubes and homogeneously distributed on the inner walls by rotation and tilting on a shaking device (2 h at 30 rpm). With a compound concentration of 900 ppm, an inner surface of 44.7 cm^2 and a homogeneous distribution, a dose of 5 μg/cm^2 is achieved.
(§2) After the solvent has evaporated, each test tube is filled with 5-10 adult cat fleas (Ctenocephalides felis), closed with a perforated lid and incubated in a lying position at room temperature and relative humidity. After 48 hours efficacy is determined. The fleas are patted on the ground of the tubes and are incubated on a heating plate at 45-50° C. for at most 5 minutes. Immotile or uncoordinated moving fleas, which are not able to escape the heat by climbing upwards, are marked as dead or moribund.
An efficacy of 100% means all fleas are dead or moribund; 0% means no fleas are dead or moribund.

[3] = tested on: adult brown dog ticks (Rhipicephalus sanguineus); experiment: Rhipicephalus sanguineus in-vitro contact test with adult brown dog ticks; conditions: after 48 hours, read-out: efficacy (ticks dead or moribund)
Procedure: as §1
as §2, with “brown dog ticks (Rhipicephalus sanguineus),” for “cat fleas (Ctenocephalides felis),”, “ticks” for “fleas”, “ticks,” for “fleas,”
An efficacy of 100% means all ticks are dead or moribund; 0% means no ticks are dead or moribund.

[4] = tested on: larvae of the southern green stink bug (Nezara viridula); experiment: Nezara viridula spray test; conditions: in Hordeum vulgare, 96 h
Method in brief: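 Barley plants infested with Nezara viridula larvae were sprayed with compound in acetone/dimethylformamide, diluted in water containing 1000 ppm alkylarylpolyglycol ether emulsifier. Mortality (%) was scored after 4 days; 100% means all stink bugs killed.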

[5] = tested on: fall armyworm larvae (Spodoptera frugiperda); experiment: Spodoptera frugiperda spray test (maize leaf sections); conditions: 168 h
Method in brief: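 Maize leaf sections were sprayed with compound formulated in acetone/DMF and diluted in water containing 1000 ppm emulsifier. Once dry, sections were infested with fall armyworm larvae. Mortality (%) was scored after 7 days.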

[6] = tested on: larvae of the banded cucumber beetle (Diabrotica balteata); experiment: Diabrotica balteata spray test; conditions: 168 h, 100 g/ha (=32 μg/well), after 7 days, wheat seeds, read-out: efficacy (seedlings grown up)
Method in brief: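 Germinated wheat seedlings (5 per well, agar plates) sprayed with compound in acetone/DMF diluted in water with 1000 ppm emulsifier, then infested with 10-20 larvae per unit. Efficacy scored after 7 days as % seedling growth relative to untreated, uninfested control (100% = normal growth, 0% = none).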

[7] = tested on: brown planthopper (Nilaparvata lugens); experiment: Nilaparvata lugens spray test; conditions: in Oryza sativa, 96 h
Procedure: Solvent: 78.0 parts by weight of acetone • • 1.5 parts by weight of dimethylformamide
Emulsifier: alkylarylpolyglycol ether
To produce a suitable preparation of active compound, 1 part by weight of active compound is mixed with the stated amount of solvents and is diluted with water, containing an emulsifier concentration of 1000 ppm, to the desired concentration. Further test concentrations are prepared by dilution with emulsifier containing water.
Rice plants (Oryza sativa) are sprayed with a preparation of the active ingredient of the desired concentration and the plants are infested with the brown planthopper (Nilaparvata lugens).
After 4 days mortality in % is determined. 100% means all planthoppers have been killed and 0% means none of the planthoppers have been killed.

[8] = tested on: adult engorged female ticks (Rhipicephalus microplus); experiment: Rhipicephalus (Boophilus) microplus injection test; conditions: 168 h, egg deposition after 7 days, read-out: efficacy (infertile eggs); for pest or weed control at 0.004 mg: 4 μg/animal
Method in brief: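 Compound was dissolved in DMSO at 10 mg per 0.5 mL and diluted with DMSO to the test concentration. Five engorged adult females received a 1 μL abdominal injection and were kept in a climate chamber. After 7 days, fertile egg deposition was scored, with unclear eggs held until hatching at about 42 days; 100% efficacy means all eggs were infertile.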

[9] = tested on: adult unfed cat fleas (Ctenocephalides felis); experiment: Ctenocephalides felis oral test; conditions: 48 h, 100 ppm in cattle blood, after 2 days
Procedure: Solvent: dimethyl sulfoxide
To produce a suitable preparation of active compound, 10 mg of active compound are dissolved in 0.5 mL solvent, and the concentrate is diluted with cattle blood to the desired concentration.
Approximately 20 adult unfed cat fleas (Ctenocephalides felis) are placed in flea chambers. The blood chamber, sealed with parafilm on the bottom, are filled with cattle blood supplied with compound solution and placed on the gauze covered top of the flea chamber, so that the fleas are able to suck the blood. The blood chamber is heated to 37° C. whereas the flea chamber is kept at room temperature.
After 2 days mortality in % is determined. 100% means all the fleas have been killed; 0% means none of the fleas have been killed.

| SMILES | mortality at 500 g/ha [4] [%] | mortality at 100 g/ha [5] [%] | pest or weed control at 32 µg/disc, 100 g/ha [6] [%] | mortality at 500 g/ha [7] [%] | also measured |
| --- | --- | --- | --- | --- | --- |
| CC(NC(=O)c1cc(C(F)(F)F)cc(C(F)(F)F)c1)c1nc(N)nn1-c1ccc(C(=O)N2CCOCC2)cn1 (stereo not drawn) [I-115] | 100 | 100 |  |  | pest or weed control at 5 µg/cm2 [1]: 100%; pest or weed control at 5 µg/cm2 [2]: 100%; pest or weed control at 1 µg/cm2, 100 g/ha ([3]; 1 μg/cm^2 (=100 g/ha)): 100%; pest or weed control at 5 µg/cm2, 500 g/ha ([3]; 5 μg/cm^2 (=500 g/ha)): 100% |
| CC(NC(=O)c1cc(Br)cc(C2(C(F)(F)F)CC2)c1)c1nc(N)nn1-c1ncccn1 (stereo not drawn) [I-112] |  |  |  |  | pest or weed control at 5 µg/cm2 [1]: 100%; pest or weed control at 5 µg/cm2 [2]: 90% |
| CNc1nc([C@H](C)NC(=O)c2cc(OC(F)(F)F)cc(S(C)(=O)=O)c2)n(-c2ncccn2)n1 [I-185] | 100 |  | 100 | 100 |  |
| CON(C)c1nc([C@H](C)NC(=O)c2cc(C(F)(F)F)cc(C(F)(F)F)c2)n(-c2ncccn2)n1 [I-149, N-[(1S)-1-[5-[methoxy(methyl)amino]-2-pyrimidin-2-yl-1,2,4-triazol-3-yl]ethyl]-3,5-bis(trifluoromethyl)benzamide] | 100 | 100 | 100 | 100 |  |
| CC(NC(=O)c1cc(Cl)cc(C(F)(F)F)c1)c1nc(C(N)=O)nn1-c1ccc(C#N)cn1 (stereo not drawn) [I-075] |  |  | 100 |  | pest or weed control at 5 µg/cm2 [1]: 100%; pest or weed control at 0.004 mg [8]: 100%; pest or weed control at 5 µg/cm2 [2]: 90%; mortality at 100 ppm [9]: 100% |
| C[C@H](NC(=O)c1cc(C(F)(F)F)cc(S(C)(=O)=O)c1)c1nc(N)nn1-c1ncccn1 [I-211] | 100 |  |  | 100 |  |
| C[C@H](NC(=O)c1cc(Cl)cc(S(C)(=O)=O)c1)c1nc(N)nn1-c1ncccn1 [I-169] | 100 |  |  | 100 |  |
| CNc1nc([C@H](C)NC(=O)c2cc(C(F)(F)F)cc(C(F)(F)F)c2)n(-c2ccc(C#N)cn2)n1 [I-168] | 100 | 100 | 100 | 100 |  |
| CNc1nc([C@H](C)NC(=O)c2cc(C3CC3)cc(S(=O)(=O)C(F)(F)F)c2)n(-c2ncccn2)n1 [I-183] | 100 | 100 | 100 | 100 |  |
| C[C@H](NC(=O)c1cc(C(F)(F)F)cc(C(F)(F)F)c1)c1nc(N2CCOCC2)nn1-c1ccc(C#N)cn1 [I-175] |  | 100 | 100 | 100 |  |
| CNc1nc([C@H](C)NC(=O)c2cc(OC(F)(F)F)cc(S(=O)(=O)c3ccc(Cl)cc3)c2)n(-c2ncccn2)n1 [I-182] |  | 100 | 100 | 100 |  |
| CCS(=O)(=O)c1cc(C(=O)N[C@@H](C)c2nc(N)nn2-c2ncccn2)cc(C(F)(F)F)c1 [I-189] | 100 |  |  | 100 |  |
| C[C@H](NC(=O)c1cc(OC(F)(F)F)cc(S(C)(=O)=O)c1)c1nc(N)nn1-c1ncccn1 [I-188] | 100 |  |  | 100 |  |
| CC(NC(=O)c1cc(Cl)cc(S(C)(=O)=O)c1)c1nc(N2CCOCC2)nn1-c1ccc(C#N)cn1 (stereo not drawn) [I-160] |  |  |  | 100 |  |
| C[C@H](NC(=O)c1cc(OC(F)(F)F)cc(C2CC2)c1)c1nc(N2CCOCC2)nn1-c1ccc(C#N)cn1 [I-174] |  |  | 100 | 100 |  |
| CON(C)c1nc([C@H](C)NC(=O)c2cc(Br)cc(OC(F)(F)F)c2)n(-c2ncccn2)n1 [I-151] | 100 | 100 | 100 | 100 |  |
| C[C@H](NC(=O)c1cc(C(F)(F)F)cc(C(F)(F)F)c1)c1nc(N)nn1-c1ccc(C#N)cn1 [I-173] | 90 | 100 | 100 | 100 |  |
| C[C@H](NC(=O)c1cc(OC(F)(F)F)cc(C2CC2)c1)c1nc(N(C)C)nn1-c1ncc(Cl)cn1 [I-177] | 100 | 100 | 100 | 100 |  |
| CC(NC(=O)c1cc(Cl)cc(C(C)(C)C#N)c1)c1nc(N(C)C)nn1-c1ncc(Cl)cn1 (stereo not drawn) [I-170] | 100 | 100 | 100 | 100 |  |
| CC(NC(=O)c1cc(Cl)cc(C(F)(F)F)c1)c1nc(C#N)nn1-c1ccc(Cl)cn1 (racemic) [I-071, 3-chloro-N-[1-[2-(5-chloro-2-pyridyl)-5-cyano-1,2,4-triazol-3-yl]ethyl]-5-(trifluoromethyl)benzamide] |  |  |  |  | pest or weed control at 5 µg/cm2 [1]: 90%; pest or weed control at 0.004 mg [8]: 100%; pest or weed control at 0.02 mg ([8]; 20 μg/animal): 100%; pest or weed control at 5 µg/cm2 [2]: 80% |
| CNc1nc([C@H](C)NC(=O)c2cc(Cl)cc(S(=O)(=O)C(F)(F)F)c2)n(-c2ncccn2)n1 [I-186] | 100 | 100 | 100 | 100 |  |
| CCS(=O)(=O)c1cc(OC(F)(F)F)cc(C(=O)N[C@@H](C)c2nc(NC)nn2-c2ncccn2)c1 [I-180] | 100 | 100 | 100 | 100 |  |
| C[C@H](NC(=O)c1cc(C(F)(F)F)cc(C(F)(F)F)c1)c1nc(N(C)C)nn1-c1ncc(Cl)cn1 [I-176] | 100 | 100 | 100 | 100 |  |
| CNc1nc([C@H](C)NC(=O)c2cc(OC(F)(F)F)cc(S(=O)(=O)C(C)C)c2)n(-c2ncccn2)n1 [I-181] |  |  |  | 100 |  |
